Tests used:
[1] = test system: ciliated neurons in cortex and dentate gyrus of Tsc1 mutant mice; test: Ciliated neurons in brain of Tsc1 mutant mice (immunohistochemistry, manual cilia counting); assay type: in vivo, mouse; conditions: rapamycin 6 mg/kg i.p. every other day P7 until P21
From the text: (§1) Neuronal cilia in TSC mouse models was examined with either a conditional deletion of TSC1 or TSC2 driven by the Synapsin-1 promoter, which results in loss of TSC1/2 proteins in post-mitotic neurons of the cortex and of the hippocampus. The TSC1/SynCre mice (Tsc1 mutant) have a shorter life span (median age postnatal day 35, P35), and they recapitulate many of the neurological manifestations of TSC, including seizures and presence of ectopic giant cells (Meikle et al., A mouse model of tuberous sclerosis: neuronal loss of Tsc1 causes dysplastic and ectopic neurons, reduced myelination, seizure activity, and limited survival; J Neurosci 27, 5546-5558 (2007)). […]
For histological analysis, animals were anesthetized (1 ml of 2.5% Avertin) and perfused transcardially with 4% PFA. […] Finally, the average percentage of neurons with cilia (NeuN^+/ACIII^+) was calculated in each of the images. […] The average percentage of SMI311^+ or SMI311^− with cilia was calculated. […] A threshold for cilia count was set such that only ACIII positive objects that measured longer than 1 μm were counted as cilia. All the imaging and the quantification were done in a blinded way. […]

[2] = test system: ciliated neurons in CA1 of the hippocampus of Tsc2 mutant mice; test: Ciliated neurons in brain of Tsc2 mutant mice (immunohistochemistry, manual cilia counting); assay type: in vivo, mouse; conditions: rapamycin 3 mg/kg i.p. every other day P7 until P56
From the text: as §1
For histological analysis, animals were anesthetized (1 ml of 2.5% Avertin) and perfused transcardially with 4% PFA. […] Finally, the average percentage of neurons with cilia (NeuN^+/ACIII^+) was calculated in each of the images. […] The average percentage of SMI311^+ or SMI311^− with cilia was calculated. […] A threshold for cilia count was set such that only ACIII positive objects that measured longer than 1 μm were counted as cilia. All the imaging and the quantification were done in a blinded way. […] All quantifications were performed in a blinded fashion.

[3] = test system: IGF-IRβ, pS6 in wild-type cortical neurons; test: Proteasomal inhibition experiment, Western blot in wild-type cortical neurons; assay type: cell-based, rat; conditions: 4 μM 17-AGG alone, 24 hrs at DIV20
[4] = test system: Hsp90 (panel of human cancer cell lines); conditions: read-out: mean IC50 against Hsp90, Kelland et al. 1999; cited from earlier work

CO[C@H]1C[C@@H]2CC[C@@H](C)[C@@](O)(O2)C(=O)C(=O)N2CCCC[C@H]2C(=O)O[C@H]([C@H](C)C[C@@H]2CC[C@@H](O)[C@H](OC)C2)CC(=O)[C@H](C)/C=C(\C)[C@@H](O)[C@@H](OC)C(=O)[C@H](C)C[C@H](C)/C=C/C=C/C=C/1C [rapamycin]
ciliation defects [1]: prevented
ciliation defects [2]: prevented

C=CCNC1=C2C[C@@H](C)C[C@H](OC)[C@H](O)[C@@H](C)/C=C(\C)[C@H](OC(N)=O)[C@@H](OC)C=C/C=C(\C)C(=O)NC(=CC1=O)C2=O [17-AGG, 3 S,5S,6R,7S,8E,10R,11S,12E,14E)-21-(allylamino)-6-hydroxy-5,11-dimethoxy-3,7,9,15-tetramethyl-16,20,22-trioxo-17-azabicyclo[16.3.1]docosa-8,12,14,18,21-pentaen-10-yl] carbamate]
IGF-IRβ levels [3]: reduced

From US20230218577A1, “USE OF HEAT SHOCK PROTEIN INHIBITORS FOR THE TREATMENT OF NEURODEVELOPMENTAL DISORDERS” (The Children's Medical Center Corporation, priority 2020, published 2023)
